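Protocol summary: plate cells (96-well), add compound at 5 concentrations, incubate 48 h, interpolate endpoints linearly. The concentration for full growth arrest is given as TGI.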
What was measured:
Assay in all cases: NCI-60 cell line screen, 48 h
[1] = system: PC-3 prostate
[2] = system: NCI-H460 lung
[3] = system: M14 melanoma
[4] = system: SK-OV-3 ovarian
[5] = system: IGROV1 ovarian
[6] = system: SNB-19 CNS
[7] = system: TK-10 renal
[8] = system: UO-31 renal
[9] = system: OVCAR-4 ovarian
[10] = system: NCI-H522 lung
[11] = system: BT-549 breast
[12] = system: OVCAR-5 ovarian
[13] = system: NCI-H23 lung
[14] = system: SW-620 colon
[15] = system: HCT-15 colon
[16] = system: RXF 393 renal
[17] = system: OVCAR-3 ovarian
[18] = system: A549 NSCLC
[19] = system: RPMI-8226 leukemia
[20] = system: SN12C renal
[21] = system: LOX IMVI melanoma
[22] = system: 786-0 renal
[23] = system: HL-60(TB) leukemia
[24] = system: SR leukemia
[25] = system: SK-MEL-2 melanoma
[26] = system: K-562 leukemia
[27] = system: HOP-62 NSCLC
[28] = system: HCC-2998 colon
[29] = system: HCT-116 colon
[30] = system: CAKI-1 renal
[31] = system: HS 578T breast
[32] = system: HT29 colon
[33] = system: KM12 colon
[34] = system: MALME-3M melanoma
[35] = system: MOLT-4 leukemia
[36] = system: SF-268 CNS
[37] = system: SK-MEL-5 melanoma
[38] = system: T-47D breast
[39] = system: MDA-MB-435
[40] = system: A498 renal
[41] = system: SF-295 CNS
[42] = system: EKVX NSCLC
[43] = system: MCF7 breast
[44] = system: HOP-92 NSCLC
[45] = system: ACHN renal
[46] = system: MDA-N
[47] = system: UACC-257 melanoma
[48] = system: DU-145 prostate
[49] = system: NCI/ADR-RES ovarian
[50] = system: UACC-62 melanoma
[51] = system: SK-MEL-28 melanoma
[52] = system: OVCAR-8 ovarian
[53] = system: COLO 205 colon
[54] = system: SNB-75 CNS
[55] = system: U251 CNS
[56] = system: NCI-H226 lung
[57] = system: CCRF-CEM leukemia
[58] = system: MDA-MB-231 breast
[59] = system: SF-539 CNS

Measured: TGI

COc1c(O)cc(C(=O)O[C@@H]2Cc3c(O)cc(O)cc3O[C@@H]2c2cc(O)c(O)c(O)c2)cc1O
43 µM: [6]
46.2 µM: [41]
37.3 µM: [20]
46.8 µM: [26]
37.2 µM: [16]
46.7 µM: [36] | [48]
65.2 µM: [11]
51.2 µM: [18]
33.3 µM: [39]
54.1 µM: [52]
46.4 µM: [9]
86.2 µM: [15]
56.8 µM: [35]
40.2 µM: [21]
33.8 µM: [22]
57.7 µM: [19]
37.1 µM: [32]
59.8 µM: [14]
61.6 µM: [42]
78.4 µM: [50]
54.6 µM: [10]
35.4 µM: [29]
42 µM: [43]
50.5 µM: [8]
98.5 µM: [13]
86 µM: [38]
95.8 µM: [24]
58.4 µM: [46]
92.3 µM: [27]
63 µM: [23]
39 µM: [33]
44.3 µM: [37]
66.7 µM: [2]
not listed: [53] | [54] | [55] | [56] | [57] | [58] | [59]
> 100 µM: all other assays above

O=[N+]([O-])c1ccc(-c2cn(-c3ccc(Cl)cc3)cn2)cc1
67.5 µM: [7]
36.5 µM: [22]
36.9 µM: [41]
24.4 µM: [4]
34.6 µM: [27]
14.4 µM: [10]
35.2 µM: [54]
35.3 µM: [17]
not listed: [9] | [16] | [44] | [59]
> 100 µM: all other assays above

CC(=O)c1ccc(NCN2C(=O)c3ccccc3C2=O)cc1
not listed: [24] | [56]
> 100 µM: all other assays above

CCOC(=O)C1(Cc2ccccc2)Cc2ccccc2C1=O (stereo unspecified)
60.8 µM: [19]
30.7 µM: [25]
96.2 µM: [59]
37.7 µM: [53]
57.3 µM: [8]
69.9 µM: [13]
81.7 µM: [50]
62.8 µM: [49]
78.2 µM: [24]
88.3 µM: [38]
45.3 µM: [39]
44.6 µM: [46]
95.5 µM: [57]
56 µM: [44]
28.8 µM: [37]
57.5 µM: [35]
92.5 µM: [51]
52.3 µM: [34]
97.8 µM: [42]
40.9 µM: [3]
65.2 µM: [32]
58.6 µM: [56]
not listed: [6] | [10] | [11] | [16] | [30] | [40] | [47]
> 100 µM: all other assays above

— PubChem BioAssay (NCI)
